# Measured values published in US8785147B2, “L-threonine analysis method and L-threonine dehydrogenase” (Toyama Prefecture, priority 2010, dated 2014).
# Where two headings read alike, the source gives them in different places.
# Columns and labels:
# [1] = test system: Purified TDH derived from Cupriavidus necator NBRC 102504; experiment: Effect of metal ions and inhibitors on TDH activity (residual activity); type: biochemical
# [2] = molecular target: PfTDH: TDH from Pyrococcus furiosus (Pyrococcus furiosus, UniProt Q8U259); conditions: cited from earlier work
# Sequence of PfTDH: TDH from Pyrococcus furiosus (Q8U259 whole entry): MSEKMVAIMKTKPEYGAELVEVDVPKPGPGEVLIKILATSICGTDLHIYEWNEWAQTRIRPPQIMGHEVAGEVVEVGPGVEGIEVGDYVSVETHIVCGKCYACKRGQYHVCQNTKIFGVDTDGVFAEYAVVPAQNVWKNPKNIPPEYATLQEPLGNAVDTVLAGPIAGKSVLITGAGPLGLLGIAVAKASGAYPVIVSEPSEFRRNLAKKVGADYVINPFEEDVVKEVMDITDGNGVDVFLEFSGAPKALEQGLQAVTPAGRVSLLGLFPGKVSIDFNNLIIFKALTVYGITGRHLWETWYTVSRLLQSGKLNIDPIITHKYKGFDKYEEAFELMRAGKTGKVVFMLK
# [3] = test system: CyTDH: TDH from Cytophaga sp. KUC-1; conditions: cited from earlier work
# [4] = test system: CsTDH: TDH from Clostridium sticklandii; conditions: cited from earlier work
# [5] = test system: TDH derived from Cupriavidus necator NBRC 102504 (SEQ ID NO: 1) (CnTDH); experiment: Substrate specificity of TDH, standard assay; type: biochemical; conditions: for Activity of the enzyme with the coenzyme (in words): as coenzyme
# Method: L-threonine oxidation activity was determined by measuring coenzyme NAD^+ reduction at 30° C. and 340 nm. The reaction composition consisted of a total volume of 1 mL and contained L-threonine (final concentration 10 mM), NAD^+ (final concentration 2.5 mM), and glycine-KCl—KOH buffer (100 mM, pH 10.0). The measurement of activity began with the addition of the enzyme. One unit (U) of enzymatic activity was defined as the amount of enzyme producing 1 μmol of NADH per minute under standard conditions.
# TDH was examined using substrates in the form of various L-amino acids, amino alcohols, and alcohols. […]
# [6] = inhibitors final concentration 10 mM, 30° C. for 1 hour, None = 100
# [7] = metal ions final concentration 1 mM, 30° C. for 1 hour, relative to enzyme without additives
# [8] = substrate specificity, L-threonine = 100
# [9] = substrate concentration 10 mM, standard assay conditions, L-threonine = 100
# [10] = inhibitors final concentration 10 mM, 30° C. for 1 hour
compound,measurement,setting,value
CCOC(=O)OC(=O)OCC [DEPC],Relative activity (%) (residual TDH activity),[1]; [6],92%
[Cl][Fe]([Cl])[Cl] [FeCl3],Relative activity (residual TDH activity),[1]; [7],27%
O=C(O)[C@@H]1CCCN1 [L-proline],Relative activity (%) PfTDH,[2],0%
same,Relative activity (%) CyTDH,[3]; [8],0%
same,Relative activity (%) CsTDH,[4]; [8],0%
same,Relative activity (%) CnTDH,[5]; [9],0%
[Cl][Pb][Cl] [PbCl2],Relative activity (residual TDH activity),[1]; [7],118%
N[C@H](CO)C(=O)O [D-serine],Relative activity (%) CnTDH,[5]; [9],0%
"CCC(O)CO (stereo not shown) [1,2-Butanediol]",Relative activity (%) PfTDH,[2]; [8],52%
same,Relative activity (%) CnTDH,[5]; [9],0%
N[C@@H](CC(=O)O)C(=O)O [L-aspartic acid],Relative activity (%) PfTDH,[2]; [8],0%
same,Relative activity (%) CyTDH,[3]; [8],0%
same,Relative activity (%) CsTDH,[4]; [8],0%
same,Relative activity (%) CnTDH,[5]; [9],0%
O=S(=O)([O-])[O-].[Mg+2] [MgSO4],Relative activity (residual TDH activity),[1]; [7],112%
O=C(O)CN(CCN(CC(=O)O)CC(=O)O)CC(=O)O [EDTA],Inhibition of TDH activity (in words),[1]; [10],not inhibited
same,Relative activity (%) (residual TDH activity),[1]; [6],103%
[Cl][Mn][Cl] [MnCl2],Relative activity (residual TDH activity),[1]; [7],102%
[Ca+2].[Cl-].[Cl-] [CaCl2],Relative activity (residual TDH activity),[1]; [7],109%
N[C@@H](Cc1ccccc1)C(=O)O [L-phenylalanine],Relative activity (%) PfTDH,[2]; [8],0%
same,Relative activity (%) CyTDH,[3]; [8],0%
same,Relative activity (%) CsTDH,[4]; [8],0%
same,Relative activity (%) CnTDH,[5]; [9],0%
[Cl][Sn][Cl] [SnCl2],Relative activity (residual TDH activity),[1]; [7],84%
"NC(=O)c1ccc[n+]([C@@H]2O[C@H](COP(=O)([O-])OP(=O)(O)OC[C@H]3O[C@@H](n4cnc5c(N)ncnc54)[C@H](O)[C@@H]3O)[C@@H](O)[C@H]2O)c1 [NAD^+, nicotinamide adenine dinucleotide]",Activity of the enzyme with the coenzyme (in words),[5],showed the activity
CC(C)[C@H](N)C(=O)O [L-valine],Relative activity (%) PfTDH,[2]; [8],0%
same,Relative activity (%) CyTDH,[3]; [8],0%
same,Relative activity (%) CsTDH,[4]; [8],0%
same,Relative activity (%) CnTDH,[5]; [9],0%
OCC(O)CO [Glycerol],Relative activity (%) PfTDH,[2]; [8],4%
same,Relative activity (%) CnTDH,[5]; [9],0%
OCCS [β-mercaptoethanol],Inhibition of TDH activity (in words),[1]; [10],Nor did the reducing agents β-mercaptoethanol and DTT inhibit enzymatic activity
same,Relative activity (%) (residual TDH activity),[1]; [6],114%
CoCl2,Relative activity (residual TDH activity),[1],115%
NC(=O)CC[C@H](N)C(=O)O [L-glutamine],Relative activity (%) PfTDH,[2]; [8],0%
same,Relative activity (%) CyTDH,[3]; [8],0%
same,Relative activity (%) CsTDH,[4]; [8],0%
same,Relative activity (%) CnTDH,[5]; [9],0%
O=S(=O)([O-])[O-].[Mn+2] [MnSO4],Relative activity (residual TDH activity),[1]; [7],114%
NCCCC[C@H](N)C(=O)O [L-lysine],Relative activity (%) PfTDH,[2]; [8],0%
same,Relative activity (%) CyTDH,[3]; [8],0%
same,Relative activity (%) CsTDH,[4]; [8],0%
same,Relative activity (%) CnTDH,[5]; [9],0%
N[C@@H](Cc1c[nH]cn1)C(=O)O [L-histidine],Relative activity (%) PfTDH,[2]; [8],0%
same,Relative activity (%) CyTDH,[3]; [8],0%
same,Relative activity (%) CsTDH,[4]; [8],0%
same,Relative activity (%) CnTDH,[5]; [9],0%
O=C(O)CI [Iodoacetic acid],Relative activity (%) (residual TDH activity),[1],48%
CSCC[C@H](N)C(=O)O [L-methionine],Relative activity (%) PfTDH,[2],0%
same,Relative activity (%) CyTDH,[3]; [8],0%
same,Relative activity (%) CsTDH,[4]; [8],0%
same,Relative activity (%) CnTDH,[5]; [9],0%
[Cl][Ni][Cl] [NiCl2],Relative activity (residual TDH activity),[1]; [7],119%
[Cl-].[Cs+] [CsCl],Relative activity (residual TDH activity),[1]; [7],117%
[Cl-].[Cl-].[Mg+2] [MgCl2],Relative activity (residual TDH activity),[1]; [7],112%
CCN1C(=O)C=CC1=O [NEM],Inhibition of TDH activity (in words),[1]; [10],inhibited
same,Relative activity (%) (residual TDH activity),[1]; [6],0.0%
N=C(N)NCCC[C@H](N)C(=O)O [L-arginine],Relative activity (%) PfTDH,[2],0%
same,Relative activity (%) CyTDH,[3],0%
same,Relative activity (%) CsTDH,[4],0%
same,Relative activity (%) CnTDH,[5],0%
[Cl][Hg][Cl] [HgCl2],Relative activity (%) (residual TDH activity),[1],23%
NC(=O)c1ccc[n+]([C@@H]2O[C@H](COP(=O)([O-])OP(=O)(O)OC[C@H]3O[C@@H](n4cnc5c(N)ncnc54)[C@H](OP(=O)(O)O)[C@@H]3O)[C@@H](O)[C@H]2O)c1 [NADP^+],Activity of the enzyme with the coenzyme (in words),[5],No activity of the enzyme was observed
O=C(O)CN(CCOCCOCCN(CC(=O)O)CC(=O)O)CC(=O)O [EGTA],Inhibition of TDH activity (in words),[1]; [10],not inhibited
same,Relative activity (%) (residual TDH activity),[1]; [6],94%
[N-]=[N+]=[N-].[Na+] [NaN3],Relative activity (%) (residual TDH activity),[1],12%
CCCCO [1-Butanol],Relative activity (%) PfTDH,[2],0%
same,Relative activity (%) CnTDH,[5]; [9],0%
[Ba+2].[Cl-].[Cl-] [BaCl2],Relative activity (residual TDH activity),[1]; [7],113%
CCC(N)CO (racemic) [DL-2-amino1-butanol],Relative activity (%) CnTDH,[5]; [9],0%
O=[N+]([O-])[O-].[Ag+] [AgNO3],Relative activity (residual TDH activity),[1]; [7],100%
NCCC[C@H](N)C(=O)O [L-ornithine],Relative activity (%) PfTDH,[2],0%
same,Relative activity (%) CnTDH,[5]; [9],0%
[Cl-].[Li+] [LiCl],Relative activity (residual TDH activity),[1]; [7],109%
"COS(=O)(=O)[O-].C[n+]1c2ccccc2nc2ccccc21 [PMS, phenazine methosulfate]",Inhibition of TDH activity (in words),[1]; [10],inhibited
same,Relative activity (%) (residual TDH activity),[1]; [6],0.0%
O=C(O)c1cc[c]([Hg][Cl])cc1 [PCMB],Relative activity (%) (residual TDH activity),[1]; [6],6.2%
CCC(C)O (stereo not shown) [2-Butanol],Relative activity (%) PfTDH,[2],0%
same,Relative activity (%) CyTDH,[3]; [8],0%
same,Relative activity (%) CnTDH,[5]; [9],0%
C[C@@H](O)[C@H](N)C(=O)O (racemic) [DL-threonine],Relative activity (%) CnTDH,[5]; [9],64%
O=S(=O)([O-])[O-].[Cu+2] [CuSO4],Relative activity (residual TDH activity),[1]; [7],115%
[Cl][Al]([Cl])[Cl] [AlCl3],Relative activity (residual TDH activity),[1]; [7],118%
O[C@@H](CS)[C@@H](O)CS [DTT],Inhibition of TDH activity (in words),[1]; [10],Nor did the reducing agents β-mercaptoethanol and DTT inhibit enzymatic activity
same,Relative activity (%) (residual TDH activity),[1]; [6],125%
[Na+].[Na+].[O]=[Mo](=[O])([O-])[O-] [NaMoO4],Relative activity (residual TDH activity),[1]; [7],113%
[Cl][Cr]([Cl])[Cl] [CrCl3],Relative activity (residual TDH activity),[1]; [7],110%
C[C@@H](O)[C@@H](N)C(=O)O [D-allothreonine],Relative activity (%) CyTDH,[3]; [8],0%
same,Relative activity (%) CsTDH,[4]; [8],0%
same,Relative activity (%) CnTDH,[5]; [9],0%
NCCS(=O)(=O)O [Taurine],Relative activity (%) CnTDH,[5]; [9],0%
CC(=O)C(C)O (stereo not shown) [Acetoin],Relative activity (%) PfTDH,[2]; [8],38%
same,Relative activity (%) CsTDH,[4]; [8],0%
same,Relative activity (%) CnTDH,[5]; [9],0%
[Cl-].[Cl-].[Zn+2] [ZnCl2],Relative activity (residual TDH activity),[1]; [7],105%
O=S(=O)([O-])[O-].[Zn+2] [ZnSO4],Relative activity (residual TDH activity),[1]; [7],109%
[Cl][Cu][Cl] [CuCl2],Relative activity (residual TDH activity),[1]; [7],117%
Calcium pantothenate,Inhibition of TDH activity (in words),[1]; [10],slight inhibiting
same,Relative activity (%) (residual TDH activity),[1]; [6],95.0%
"CC(O)C(C)O (stereo not shown) [2,3-Butanediol]",Relative activity (%) PfTDH,[2]; [8],94%
same,Relative activity (%) CnTDH,[5]; [9],0%
NC(=O)CI [Iodoacetamide],Inhibition of TDH activity (in words),[1]; [10],inhibited
same,Relative activity (%) (residual TDH activity),[1]; [6],0.8%
[Cl][Fe][Cl] [FeCl2],Relative activity (residual TDH activity),[1]; [7],68%
"CC(O)CCO (stereo not shown) [1,3-Butanediol]",Relative activity (%) PfTDH,[2]; [8],0%
same,Relative activity (%) CnTDH,[5]; [9],0%
